Source: ChEMBL document CHEMBL5252574, “α-Synuclein Aggregation Inhibitory Procerolides and Diphenylalkanes from the Ascidian Polycarpa procera” (J Nat Prod, 2023)
Activity calls are given as the source filed them. The calls are words filed in the database; no cut-off is given here.

Legend:
[1] = target: Alpha-synuclein (Homo sapiens) (UniProt P37840); assay: Inhibition of human alpha-syn expressed in Escherichia coli BL21 (DE3) cells aggregation incubated for 36 hrs by ThT dye based fluorescence assay
Pseudomonas aeruginosa = assay: Antibacterial activity against Pseudomonas aeruginosa ATCC 27853 incubated for 18 hrs by microdilution method; format: functional, organism-based
Staphylococcus aureus [2] = assay: Antibacterial activity against methicillin- resistant Staphylococcus aureus ATCC 43300 incubated for 18 hrs by microdilution method; format: functional, organism-based
Staphylococcus aureus [3] = assay: Antibacterial activity against methicillin-susceptible Staphylococcus aureus ATCC 25923 incubated for 18 hrs by microdilution method; format: functional, organism-based

Row | SMILES | inhibition [1] | Activity (Pseudomonas aeruginosa) | Activity (Staphylococcus aureus [2]) | Activity (Staphylococcus aureus [3])
1 | COC1=C(c2cc(Br)c(O)c(Br)c2)[C@H](Cc2ccc(OC)c(Br)c2)OC1=O |  | inactive | inactive | inactive
2 | COC1=C(c2cc(Br)c(O)c(Br)c2)[C@H](Cc2cc(Br)c(OC)c(Br)c2)OC1=O |  | inactive | inactive | inactive
3 | CCCC(C)CC1(C(=O)OCC)OC(=O)C(O)=C1c1ccc(OC)cc1 (configuration not stated) | inactive |  |  | 
4 | CCOC(=O)C1(Cc2cccc(OC)c2)OC(=O)C(O)=C1c1cccc(OC)c1 (configuration not stated) | inactive |  |  | 
5 | COc1ccc(C[C@H](O)C(=O)c2cc(Br)c(O)c(Br)c2)cc1Br |  | inactive | inactive | inactive
6 | CCOC(=O)C1(Cc2ccccc2)OC(=O)C(O)=C1c1ccccc1 (configuration not stated) | inactive |  |  | 
7 | CCOC(=O)C1(Cc2ccc(Cl)cc2)OC(=O)C(O)=C1c1ccc(Cl)cc1 (configuration not stated) | inactive |  |  | 

The next lines start with results.

Row | inhibition [1] | SMILES | Activity (Pseudomonas aeruginosa) | Activity (Staphylococcus aureus [2]) | Activity (Staphylococcus aureus [3])
8 | inactive | CCOC(=O)C1(Cc2ccccc2)OC(=O)C(O)=C1c1ccc(OC)cc1 (configuration not stated) |  |  | 
9 | inactive | CCOC(=O)C1(Cc2ccc(OC)cc2)OC(=O)C(O)=C1c1ccc(OC)cc1 (configuration not stated) |  |  | 
10 | inactive | CCOC(=O)C1(Cc2ccc(C)cc2)OC(=O)C(O)=C1c1ccc(C)cc1 (configuration not stated) |  |  | 
11 | inactive | CCOC(=O)C1(Cc2ccc(OC)cc2)OC(=O)C(O)=C1c1ccccc1 (configuration not stated) |  |  | 
